Assay results published in patent US9822099B2, “Triazole derivatives” (priority 2013, dated 2017).
Where two headings read alike, the source gives them in different places. Marks after values point to notes of the source that are not given here.

Columns and labels:
Puccinia recondita = experiment: Example B: in vivo preventive test on Puccinia recondita (brown rust on wheat); details: wheat plants, preventive spray, evaluated 11 days after inoculation
Procedure: (§1) The young plants of wheat are treated by spraying the active ingredient prepared as described above. Control plants are treated only with an aqueous solution of acetone/Dimethyl sulfoxide/Tween®. After 24 hours, the plants are contaminated by spraying the leaves with an aqueous suspension of Puccinia recondita spores.

Leptosphaeria nodorum = experiment: Example K: Leptosphaeria nodorum test (wheat)/preventive; assay type: in vivo; details: 500 ppm of active ingredient, preventive, evaluated 8 days after inoculation
Procedure: Solvent: 49 parts by weight of N,N-dimethylacetamide Emulsifier: 1 part by weight of alkylaryl polyglycol ether To produce a suitable preparation of active compound, 1 part by weight of active compound or active compound combination is mixed with the stated amounts of solvent and emulsifier, and the concentrate is diluted with water to the desired concentration. To test for preventive activity, young plants are sprayed with the preparation of active compound or active compound combination at the stated rate of application. After the spray coating has been dried, the plants are sprayed with a spore suspension of Leptosphaeria nodorum.

[1] = system: Fusarium nivale (var. majus); experiment: Example J: Fusarium nivale (var. majus)-test (wheat)/preventive; assay type: in vivo; details: 500 ppm of active ingredient, preventive, evaluated 5 days after inoculation
Procedure: (§2) Solvent: 49 parts by weight of N,N-dimethylacetamide
(§3) Emulsifier: 1 part by weight of alkylaryl polyglycol ether
(§4) To produce a suitable preparation of active compound, 1 part by weight of active compound or active compound combination is mixed with the stated amounts of solvent and emulsifier, and the concentrate is diluted with water to the desired concentration.
To test for preventive activity, young plants are sprayed with the preparation of active compound or active compound combination at the stated rate of application.
After the spray coating has been dried, the plants are slightly injured by using a sandblast and afterwards they are sprayed with a conidia suspension of Fusarium nivale (var. majus).
The plants are placed in the greenhouse under a translucent incubation cabinet at a temperature of approximately 10° C. and a relative atmospheric humidity of approximately 100%.
(§5) The test is evaluated 5 days after the inoculation. 0% means an efficacy which corresponds to that of the untreated control, while an efficacy of 100% means that no disease is observed.

Fusarium graminearum = assay type: in vivo; details: 500 ppm of active ingredient; barley, preventive; evaluated 5 days after inoculation
Pyricularia oryzae = assay type: in vivo; details: 500 ppm of active ingredient; rice, preventive; evaluated 8 days after inoculation
Sphaerotheca fuliginea = experiment: Example E: in vivo preventive test on Sphaerotheca fuliginea (powdery mildew on cucurbits); details: gherkin plants, preventive spray, evaluated 15 days after inoculation
Procedure: as §1, with “gherkin” for “wheat”, “Sphaerotheca fuliginea” for “Puccinia recondita”

Septoria tritici = experiment: Example D: in vivo preventive test on Septoria tritici (leaf spot on wheat); details: wheat plants, preventive spray, evaluated 24 days after inoculation
Procedure: as §1, with “Septoria tritici” for “Puccinia recondita”

Uromyces appendiculatus = experiment: Example F: in vivo preventive test on Uromyces appendiculatus (bean rust); details: bean plants, preventive spray, evaluated 11 days after inoculation
Procedure: as §1, with “bean” for “wheat”, “Uromyces appendiculatus” for “Puccinia recondita”

Phakopsora pachyrhizi = experiment: Example L: Phakopsora test (soybeans)/preventive; assay type: in vivo; details: preventive, evaluated 7 days after inoculation
[2] = system: Blumeria graminis f. sp. hordei; experiment: Example G: Blumeria test (barley)/preventive; assay type: in vivo; details: 500 ppm of active ingredient, preventive, evaluated 7 days after inoculation
Procedure: Solvent: 49 parts by weight of N,N-dimethylacetamide Emulsifier: 1 part by weight of alkylaryl polyglycol ether To produce a suitable preparation of active compound, 1 part by weight of active compound or active compound combination is mixed with the stated amounts of solvent and emulsifier, and the concentrate is diluted with water to the desired concentration. To test for preventive activity, young plants are sprayed with the preparation of active compound or active compound combination at the stated rate of application. After the spray coating has been dried, the plants are dusted with spores of Blumeria graminis f. sp. hordei.

Pyrenophora teres = experiment: Example C: in vivo preventive test on Pyrenophora teres (net blotch on barley); details: 500 ppm of active ingredient; barley plants, preventive spray; evaluated 14 days after inoculation
Procedure: as §1, with “barley” for “wheat”, “Pyrenophora teres” for “Puccinia recondita”

Botrytis cinerea = experiment: Example A: in vivo preventive test on Botrytis cinerea (grey mould); details: gherkin plants, preventive spray, evaluated 4 to 5 days after inoculation
Procedure: as §1, with “gherkin” for “wheat”, “Botrytis cinerea” for “Puccinia recondita”

Fusarium culmorum = experiment: Example H: Fusarium culmorum-test (wheat)/curative; assay type: in vivo; details: 500 ppm of active ingredient, curative, evaluated 5 days after inoculation
Procedure: as §2, §3, §4
To test for curative activity, young plants are slightly injured by using a sandblast and afterwards they are sprayed with a conidia suspension of Fusarium culmorum and placed for 24 hours in a greenhouse under a translucent incubation cabinet at a temperature of approximately 22° C. and a relative atmospheric humidity of approximately 100% and are subsequently sprayed with the preparation of active compound at the stated rate of application.
After the spray coating has been dried, the plants remain in the greenhouse under translucent incubation cloches at a temperature of approximately 22° C. and a relative atmospheric humidity of approximately 100%.
as §5

Row | Structure (SMILES) | Eff. % (Leptosphaeria nodorum) | Eff. % [1] | Eff. % (Fusarium graminearum) | Eff. % (Pyricularia oryzae) | Eff. % (Sphaerotheca fuliginea; 100 ppm of active ingredient) | LogP (pH 2.7) | Eff. % (Phakopsora pachyrhizi; 10 ppm of active ingredient) | Eff. % [2] | Eff. % (Puccinia recondita; 500 ppm of active ingredient) | Eff. % (Uromyces appendiculatus; 500 ppm of active ingredient) | Eff. % (Sphaerotheca fuliginea; 500 ppm of active ingredient) | Eff. % (Septoria tritici; 500 ppm of active ingredient) | Eff. % (Pyrenophora teres) | Eff. % (Botrytis cinerea; 500 ppm of active ingredient) | also measured
1 | OC(Cc1cc(Cl)nnc1Cl)(Cn1cncn1)C1(Cl)CC1 (stereo not shown) [Example I-46] | 83% | 100% | 92% | 78% | 100% | 1.92^[a] | – | – | – | – | – | – | – | – | Eff. % (Puccinia recondita; 100 ppm of active ingredient): 88%; Eff. % (Septoria tritici; 100 ppm of active ingredient): 100%
2 | OC(Cc1nccnc1Cl)(Cn1cncn1)C1(Cl)CC1 (stereo not shown) [Example I-30] | – | – | – | – | 94% | 1.86^[a] | 75% | – | – | – | – | – | – | – | Eff. % (Uromyces appendiculatus; 100 ppm of active ingredient): 100%
3 | OC(Cc1cc(Cl)ncc1F)(Cn1cncn1)C1(Cl)CC1 (stereo not shown) [Example I-40] | 100% | 86% | 100% | – | – | 2.06^[a] | 73% | 100% | 97% | 100% | 100% | 100% | 100% | 97% | –
4 | CC(CF)(CF)C(O)(Cc1ccncc1F)Cn1cncn1 (stereo not shown) [Example I-21] | 94% | 100% | 100% | – | 100% | 1.27^[a] | 93% | 100% | – | – | – | – | – | – | Eff. % (Fusarium culmorum): 100%; Eff. % (Puccinia recondita; 100 ppm of active ingredient): 98%; Eff. % (Uromyces appendiculatus; 100 ppm of active ingredient): 100%; Eff. % (Septoria tritici; 100 ppm of active ingredient): 100%
5 | OC(Cc1ccc(Cl)c(Cl)n1)(Cn1cncn1)C1(Cl)CC1 (stereo not shown) [Example I-31] | 88% | 75% | – | – | 90% | 2.66^[a] | – | 100% | – | – | – | – | – | – | Eff. % (Puccinia recondita; 100 ppm of active ingredient): 83%; Eff. % (Uromyces appendiculatus; 100 ppm of active ingredient): 94%; Eff. % (Septoria tritici; 100 ppm of active ingredient): 100%
6 | OC(Cc1cccnc1Cl)(Cn1cncn1)C1(Cl)CC1 (single isomer, unassigned) [Example I-95] | 100% | 100% | 100% | 100% | – | 1.81^[a] | – | 100% | – | – | – | – | – | – | LogP (pH 7.8): 1.79^[b];
7 | OC(Cc1ccc(Cl)nc1)(Cn1cncn1)C1(Cl)CC1 (stereo not shown) [Example I-4] | 80% | 71% | – | – | – | 1.84^[a] | – | 100% | 100% | 97% | 100% | 96% | – | 100% | Eff. % (Fusarium culmorum): 92%; Eff. % (Phakopsora pachyrhizi; 100 ppm of active ingredient): 95%
8 | OC(Cc1cc(Cl)ncc1Cl)(Cn1cncn1)C1(Cl)CC1 (stereo not shown) [Example I-58] | 93% | 100% | 100% | 100% | – | 2.53^[a] | 89% | 100% | 97% | 100% | 100% | 100% | 95% | 98% | –
9 | OC(Cc1ccnc2ccccc12)(Cn1cncn1)C1(Cl)CC1 (stereo not shown) [Example I-27] | – | 93% | 100% | 89% | 100% | 1.00^[a] | – | 100% | – | – | – | – | – | – | Eff. % (Uromyces appendiculatus; 100 ppm of active ingredient): 98%; Eff. % (Botrytis cinerea; 100 ppm of active ingredient): 98%
10 | CC(C)(Oc1ccc(Cl)cc1)C(O)(Cc1ccncc1Cl)Cn1cncn1 (racemic) [Example I-70] | 89% | 88% | – | – | – | 2.84^[a] | – | 100% | 94% | 99% | 100% | 100% | – | – | –
11 | CC(CF)(CF)C(O)(Cc1ccnc(Cl)c1)Cn1cncn1 (stereo not shown) [Example I-36] | – | – | 94% | – | – | 1.66^[a] | – | 100% | 97% | 100% | 100% | 100% | 88% | – | –
12 | OC(Cc1ccnc(Cl)c1)(Cn1cncn1)C1(F)CC1 (stereo not shown) [Example I-33] | 86% | 93% | 100% | – | – | 1.44^[a] | – | 100% | 93% | 100% | 100% | 100% | 75% | – | Eff. % (Botrytis cinerea; 100 ppm of active ingredient): 94%
13 | OC(Cc1ccncc1Cl)(Cn1cncn1)C1CCC1 (racemic) [Example I-77] | – | 83% | 86% | 86% | – | 1.46^[a] | – | 100% | 98% | 100% | 100% | 100% | 86% | 100% | Eff. % (Phakopsora pachyrhizi; 100 ppm of active ingredient): 100%
14 | OC(Cc1ccncc1C(F)(F)F)(Cn1cncn1)C1(Cl)CC1 (racemic) [Example I-81] | 100% | 100% | 100% | 100% | – | 2.08^[a] | 85% | 100% | 100% | 100% | 100% | 100% | 97% | 99% | –
15 | OC(Cc1nccnc1Br)(Cn1cncn1)C1(Cl)CC1 (racemic) [Example I-71] | – | 94% | 100% | 80% | – | 1.96^[a] | – | 100% | 94% | 99% | 100% | 100% | 79% | 100% | –
16 | OC(Cc1cccnc1Cl)(Cn1cncn1)C1(Cl)CC1 (single isomer, unassigned) [Example I-94] | 71% | 100% | – | 70% | – | 1.81^[a] | – | 100% | – | – | – | – | – | – | LogP (pH 7.8): 1.79^[b];
